Blank lines part the entries; values can stand above or below the molecule they belong to. The source made the active and inactive calls. Unless noted, the rule behind the calls is not given here.
Tests used:
[1] = molecular target: T1, Kappa-type opioid receptor (Homo sapiens, UniProt P41145); experiment: SAR analysis of small molecule antagonists of the kappa opioid receptor via a luminescent beta-arrestin assay - Set 5. [Related pubchem assays (depositor defined):AID1778, AID1785]; assay type: functional
[2] = molecular target: T1, Kappa-type opioid receptor; experiment: SAR analysis of small molecule antagonists of the kappa opioid receptor via a luminescent beta-arrestin assay - Set 4. [Related pubchem assays (depositor defined):AID1777, AID1778, AID1785, AID1786, AID1966, AID2133, AID2136, AID2285]; assay type: functional
[3] = molecular target: T1, Kappa-type opioid receptor; assay type: functional
[4] = molecular target: T2, Delta-type opioid receptor (Homo sapiens, UniProt P41143); experiment: HTS Image-Based Screen for Antagonists of the DOR Receptor. [Related pubchem assays (depositor defined):AID1777, AID1785, AID1786, AID2133]; assay type: functional
Mu-type opioid receptor = Mu-type opioid receptor (Homo sapiens, UniProt P35372); experiment: HTS Image-Based Screen for Agonists of the MOR Receptor. [Related pubchem assays (depositor defined):AID1777, AID1785, AID1786, AID2133]; assay type: functional;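 also: imaging of beta-arrestin GFP recruitment into spots after receptor activation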
[5] = molecular target: T2, Delta-type opioid receptor; experiment: HTS Image-Based Screen for Agonists of the DOR Receptor. [Related pubchem assays (depositor defined):AID1777, AID1786, AID2133]; assay type: functional
[6] = molecular target: T3, Short transient receptor potential channel 4 (Mus musculus, UniProt Q9QUQ5); experiment: mouse TRPC4 channel inhibitors, dose response, cell-based, HEK293 TRPC4/mu-opioid, Fluo-4 calcium (AID 434942); assay type: functional;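 also: potency of inhibitors blocking the TRPC4 calcium response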
T3 sequence (Q9QUQ5 whole entry): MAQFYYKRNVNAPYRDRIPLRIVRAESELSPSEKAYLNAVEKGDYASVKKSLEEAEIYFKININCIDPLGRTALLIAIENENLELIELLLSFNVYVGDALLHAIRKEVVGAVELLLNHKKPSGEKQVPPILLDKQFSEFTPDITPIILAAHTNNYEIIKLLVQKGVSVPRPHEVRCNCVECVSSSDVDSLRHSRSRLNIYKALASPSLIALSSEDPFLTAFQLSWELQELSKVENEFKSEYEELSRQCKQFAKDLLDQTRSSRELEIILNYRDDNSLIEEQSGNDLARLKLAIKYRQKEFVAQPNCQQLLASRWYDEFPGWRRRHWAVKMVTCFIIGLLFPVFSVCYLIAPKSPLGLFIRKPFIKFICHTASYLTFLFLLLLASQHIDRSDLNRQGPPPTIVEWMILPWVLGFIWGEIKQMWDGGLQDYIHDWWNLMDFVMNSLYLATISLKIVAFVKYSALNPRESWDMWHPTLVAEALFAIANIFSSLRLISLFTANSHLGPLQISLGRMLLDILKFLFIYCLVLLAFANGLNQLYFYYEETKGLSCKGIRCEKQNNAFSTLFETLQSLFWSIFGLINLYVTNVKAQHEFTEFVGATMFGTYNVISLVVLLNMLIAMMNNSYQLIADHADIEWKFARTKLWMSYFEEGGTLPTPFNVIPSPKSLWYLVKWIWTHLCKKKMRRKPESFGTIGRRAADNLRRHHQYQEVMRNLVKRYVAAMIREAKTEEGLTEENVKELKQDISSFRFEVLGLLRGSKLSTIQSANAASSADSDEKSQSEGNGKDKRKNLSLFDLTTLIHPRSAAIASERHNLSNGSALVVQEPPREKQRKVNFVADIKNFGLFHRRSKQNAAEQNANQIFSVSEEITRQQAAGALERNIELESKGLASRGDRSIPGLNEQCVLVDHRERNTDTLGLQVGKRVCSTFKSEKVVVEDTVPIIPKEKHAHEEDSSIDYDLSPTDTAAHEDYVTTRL

[7] = molecular target: T1, Kappa-type opioid receptor; assay type: functional; remark: listed apart in the source
[8] = molecular target: Sphingosine 1-phosphate receptor 3 (Homo sapiens, UniProt Q99500); experiment: (§1) Late-stage fluorescence-based dose-response cell-based assay to identify agonists of the Sphingosine 1-Phosphate Receptor 4 (S1P4): Sphingosine 1-Phosphate Receptor 3 (S1P3) counterscreen assay. [Related pubchem assays (depositor defined):AID1509, AID1523, AID1563, AID1686, AID1701, AID1801, AID463107, AID463225, AID504400]; assay type: functional
[9] = molecular target: Sphingosine 1-phosphate receptor 1 (Homo sapiens, UniProt P21453); experiment: as §1, with “1 (S1P1)” for “3 (S1P3)”; assay type: functional
[10] = molecular target: Sphingosine 1-phosphate receptor 5 (Homo sapiens, UniProt Q9H228); experiment: as §1, with “5 (S1P5)” for “3 (S1P3)”; assay type: functional
[11] = molecular target: Sphingosine 1-phosphate receptor 2 (Homo sapiens, UniProt O95136); experiment: as §1, with “2 (S1P2)” for “3 (S1P3)”; assay type: functional
[12] = molecular target: T4, Tyrosine-protein phosphatase non-receptor type 22 (Homo sapiens, UniProt Q9Y2R2); experiment: PubChem AID 2135
T4 sequence (Q9Y2R2 whole entry): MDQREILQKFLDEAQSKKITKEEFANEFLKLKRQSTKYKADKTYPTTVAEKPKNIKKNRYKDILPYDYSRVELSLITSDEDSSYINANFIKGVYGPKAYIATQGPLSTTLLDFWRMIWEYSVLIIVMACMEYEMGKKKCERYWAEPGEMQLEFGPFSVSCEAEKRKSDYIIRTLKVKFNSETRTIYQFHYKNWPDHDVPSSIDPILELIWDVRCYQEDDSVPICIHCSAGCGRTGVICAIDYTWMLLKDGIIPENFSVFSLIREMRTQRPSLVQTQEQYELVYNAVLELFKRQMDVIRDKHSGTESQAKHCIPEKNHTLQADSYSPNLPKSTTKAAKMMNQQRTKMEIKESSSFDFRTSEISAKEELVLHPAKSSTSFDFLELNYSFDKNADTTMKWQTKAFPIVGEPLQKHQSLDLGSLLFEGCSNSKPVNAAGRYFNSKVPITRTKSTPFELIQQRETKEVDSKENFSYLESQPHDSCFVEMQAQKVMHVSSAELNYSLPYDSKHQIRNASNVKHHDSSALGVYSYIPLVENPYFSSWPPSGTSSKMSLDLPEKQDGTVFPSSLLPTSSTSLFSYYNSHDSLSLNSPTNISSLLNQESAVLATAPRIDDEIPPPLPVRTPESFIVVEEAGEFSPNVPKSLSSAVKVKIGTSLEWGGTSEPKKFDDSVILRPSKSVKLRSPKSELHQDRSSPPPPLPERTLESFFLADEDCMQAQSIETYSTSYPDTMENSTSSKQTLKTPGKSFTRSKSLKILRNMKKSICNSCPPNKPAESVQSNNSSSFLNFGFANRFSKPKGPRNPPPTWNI

[13] = molecular target: T4, Tyrosine-protein phosphatase non-receptor type 22; experiment: SAR LYP1 Fluorescent Assay using pCAP substrate for In Vitro dose response studies - Set 2. [Related pubchem assays (depositor defined):AID1779, AID1784, AID2135, AID449727]; assay type: functional
[14] = molecular target: T4, Tyrosine-protein phosphatase non-receptor type 22; experiment: LYP (PTPN22) phosphatase inhibitor potency, SAR follow-up, biochemical, pCAP fluorogenic substrate, fluorescence, set 3 (AID 449727); assay type: functional
[15] = molecular target: T4, Tyrosine-protein phosphatase non-receptor type 22; experiment: SAR LYP1 Fluorescent Assay using OMFP substrate for In Vitro dose response studies - Set 2. [Related pubchem assays (depositor defined):AID1779, AID1784, AID2140, AID449726, AID488869]; assay type: functional
[16] = molecular target: T4, Tyrosine-protein phosphatase non-receptor type 22; experiment: PubChem AID 2140
[17] = molecular target: T4, Tyrosine-protein phosphatase non-receptor type 22; experiment: SAR LYP1 Fluorescent Assay using OMFP substrate for In Vitro dose response studies - Set 3. [Related pubchem assays (depositor defined):AID1779, AID1784, AID2140, AID2686]; assay type: functional
[18] = molecular target: T5, Tyrosine-protein phosphatase non-receptor type 7 (Homo sapiens, UniProt P35236); experiment: HePTP (PTPN7) phosphatase inhibitor potency, SAR follow-up, biochemical, set 2 (AID 449736); assay type: functional
T5 sequence (P35236 whole entry): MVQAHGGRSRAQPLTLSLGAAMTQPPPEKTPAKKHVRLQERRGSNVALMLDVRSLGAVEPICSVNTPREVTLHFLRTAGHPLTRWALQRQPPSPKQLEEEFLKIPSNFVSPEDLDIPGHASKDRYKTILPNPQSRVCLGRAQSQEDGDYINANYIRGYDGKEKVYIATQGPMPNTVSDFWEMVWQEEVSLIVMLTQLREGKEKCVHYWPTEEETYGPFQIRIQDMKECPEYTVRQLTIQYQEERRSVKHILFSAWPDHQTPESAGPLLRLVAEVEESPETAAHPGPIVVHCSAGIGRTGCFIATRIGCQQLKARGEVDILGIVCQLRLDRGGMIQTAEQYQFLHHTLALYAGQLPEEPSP

[19] = molecular target: Tyrosine-protein phosphatase non-receptor type 12 (Homo sapiens, UniProt Q05209); experiment: SAR Selectivity Analysis of small molecule inhibitors of PEST using pCAP in a fluorescence assay. [Related pubchem assays (depositor defined):AID1779, AID1784, AID2135]; assay type: functional
[20] = molecular target: T6, E3 ubiquitin-protein ligase XIAP (Homo sapiens, UniProt P98170); experiment: SAR analysis of Antagonists of XIAP-Bir3 domain of IAP-family anti-apoptotic proteins. [Related pubchem assays (depositor defined):AID1018, AID1449, AID1513, AID1514, AID1638]
[21] = molecular target: T6, E3 ubiquitin-protein ligase XIAP; experiment: SAR analysis of Antagonists of IAP-family anti-apoptotic proteins. [Related pubchem assays (depositor defined):AID1018, AID1449, AID1513, AID1514, AID1638]

T1 sequence (P41145 whole entry): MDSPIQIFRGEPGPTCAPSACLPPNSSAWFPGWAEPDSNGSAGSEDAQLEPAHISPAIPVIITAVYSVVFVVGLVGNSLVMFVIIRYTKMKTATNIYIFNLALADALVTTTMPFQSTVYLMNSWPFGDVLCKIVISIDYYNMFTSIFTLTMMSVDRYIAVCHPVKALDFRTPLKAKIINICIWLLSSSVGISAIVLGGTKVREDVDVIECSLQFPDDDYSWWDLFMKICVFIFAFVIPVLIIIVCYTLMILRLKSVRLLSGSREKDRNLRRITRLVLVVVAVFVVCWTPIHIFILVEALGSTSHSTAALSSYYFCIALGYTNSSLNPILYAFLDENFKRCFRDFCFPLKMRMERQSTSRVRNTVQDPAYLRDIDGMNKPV
T2 sequence (P41143 whole entry): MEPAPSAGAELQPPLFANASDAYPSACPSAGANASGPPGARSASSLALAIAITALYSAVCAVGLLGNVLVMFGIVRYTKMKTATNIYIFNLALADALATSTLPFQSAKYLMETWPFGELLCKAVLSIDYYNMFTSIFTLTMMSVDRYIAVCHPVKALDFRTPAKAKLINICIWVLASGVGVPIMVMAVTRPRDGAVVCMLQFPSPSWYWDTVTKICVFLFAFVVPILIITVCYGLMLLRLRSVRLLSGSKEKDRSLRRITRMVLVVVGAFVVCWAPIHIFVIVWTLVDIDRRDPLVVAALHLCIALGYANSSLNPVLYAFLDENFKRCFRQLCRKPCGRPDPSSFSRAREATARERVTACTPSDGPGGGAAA
T6 sequence (P98170 whole entry, the tested form may be a part): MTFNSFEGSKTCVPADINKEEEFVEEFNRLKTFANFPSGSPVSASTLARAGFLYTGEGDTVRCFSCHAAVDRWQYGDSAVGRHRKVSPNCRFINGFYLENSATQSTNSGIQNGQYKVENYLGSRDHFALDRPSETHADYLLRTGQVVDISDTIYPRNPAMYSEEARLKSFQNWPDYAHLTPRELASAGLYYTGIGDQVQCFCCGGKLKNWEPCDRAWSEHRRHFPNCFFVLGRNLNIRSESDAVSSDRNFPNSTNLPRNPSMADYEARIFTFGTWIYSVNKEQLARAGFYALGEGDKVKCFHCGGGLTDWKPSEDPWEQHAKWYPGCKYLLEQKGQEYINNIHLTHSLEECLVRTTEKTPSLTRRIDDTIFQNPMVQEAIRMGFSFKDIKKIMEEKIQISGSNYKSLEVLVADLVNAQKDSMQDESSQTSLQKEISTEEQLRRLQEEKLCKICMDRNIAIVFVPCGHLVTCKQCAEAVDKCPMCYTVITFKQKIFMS
Chain of Sphingosine 1-phosphate receptor 5 (Q9H228 whole entry): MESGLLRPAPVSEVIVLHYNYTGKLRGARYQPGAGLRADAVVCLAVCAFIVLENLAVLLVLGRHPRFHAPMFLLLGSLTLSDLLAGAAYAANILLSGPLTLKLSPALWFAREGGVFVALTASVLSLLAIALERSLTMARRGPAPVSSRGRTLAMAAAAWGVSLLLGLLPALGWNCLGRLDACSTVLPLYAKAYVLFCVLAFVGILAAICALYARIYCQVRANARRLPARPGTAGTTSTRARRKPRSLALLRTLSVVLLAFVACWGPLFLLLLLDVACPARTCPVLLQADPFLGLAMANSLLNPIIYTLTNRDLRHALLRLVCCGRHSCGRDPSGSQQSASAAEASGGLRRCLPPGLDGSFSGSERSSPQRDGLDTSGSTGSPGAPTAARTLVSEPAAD
Chain of Sphingosine 1-phosphate receptor 1 (P21453 whole entry): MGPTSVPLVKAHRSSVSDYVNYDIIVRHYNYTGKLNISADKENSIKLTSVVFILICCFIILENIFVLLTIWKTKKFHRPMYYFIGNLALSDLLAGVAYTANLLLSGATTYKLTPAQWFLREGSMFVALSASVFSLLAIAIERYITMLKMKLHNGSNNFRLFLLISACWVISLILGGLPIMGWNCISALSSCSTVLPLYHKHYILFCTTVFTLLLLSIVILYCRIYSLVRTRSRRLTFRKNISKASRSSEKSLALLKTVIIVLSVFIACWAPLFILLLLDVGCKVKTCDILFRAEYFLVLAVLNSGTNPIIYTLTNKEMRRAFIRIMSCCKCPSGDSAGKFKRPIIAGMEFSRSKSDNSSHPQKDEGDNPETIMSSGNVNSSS
Chain of Mu-type opioid receptor (P35372 whole entry): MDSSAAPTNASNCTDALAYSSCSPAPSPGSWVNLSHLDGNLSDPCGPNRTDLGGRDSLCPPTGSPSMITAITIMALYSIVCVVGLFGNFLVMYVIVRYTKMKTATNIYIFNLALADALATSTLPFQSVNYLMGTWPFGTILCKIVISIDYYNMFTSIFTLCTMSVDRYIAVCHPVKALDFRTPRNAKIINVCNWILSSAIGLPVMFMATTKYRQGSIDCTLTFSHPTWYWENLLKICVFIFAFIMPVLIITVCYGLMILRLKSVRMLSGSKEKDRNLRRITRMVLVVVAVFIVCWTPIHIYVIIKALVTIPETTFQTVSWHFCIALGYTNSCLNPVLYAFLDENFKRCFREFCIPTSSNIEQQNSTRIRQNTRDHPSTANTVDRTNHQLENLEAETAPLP
Chain of Tyrosine-protein phosphatase non-receptor type 12 (Q05209 whole entry, the tested form may be a part): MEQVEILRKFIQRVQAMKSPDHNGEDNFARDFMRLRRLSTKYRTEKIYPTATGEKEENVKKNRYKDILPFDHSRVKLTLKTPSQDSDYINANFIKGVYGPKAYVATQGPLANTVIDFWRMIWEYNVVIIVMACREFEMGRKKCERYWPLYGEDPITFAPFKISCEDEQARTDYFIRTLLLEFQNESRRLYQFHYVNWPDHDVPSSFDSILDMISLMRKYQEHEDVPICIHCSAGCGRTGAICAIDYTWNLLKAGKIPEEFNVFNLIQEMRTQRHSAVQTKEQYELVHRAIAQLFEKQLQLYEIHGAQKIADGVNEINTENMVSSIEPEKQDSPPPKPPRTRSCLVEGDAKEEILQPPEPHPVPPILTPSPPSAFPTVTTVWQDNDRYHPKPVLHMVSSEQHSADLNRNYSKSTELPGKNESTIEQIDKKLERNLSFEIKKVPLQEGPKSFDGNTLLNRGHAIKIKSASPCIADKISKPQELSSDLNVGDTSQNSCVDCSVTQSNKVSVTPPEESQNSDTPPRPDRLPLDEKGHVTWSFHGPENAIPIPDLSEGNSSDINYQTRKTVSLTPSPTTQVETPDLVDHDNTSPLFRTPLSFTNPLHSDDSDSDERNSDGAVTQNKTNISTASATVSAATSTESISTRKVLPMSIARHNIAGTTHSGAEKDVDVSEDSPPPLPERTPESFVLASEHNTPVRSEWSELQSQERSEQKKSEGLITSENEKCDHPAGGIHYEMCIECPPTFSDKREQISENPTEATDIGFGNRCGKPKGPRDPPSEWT
Chain of Sphingosine 1-phosphate receptor 2 (O95136 whole entry): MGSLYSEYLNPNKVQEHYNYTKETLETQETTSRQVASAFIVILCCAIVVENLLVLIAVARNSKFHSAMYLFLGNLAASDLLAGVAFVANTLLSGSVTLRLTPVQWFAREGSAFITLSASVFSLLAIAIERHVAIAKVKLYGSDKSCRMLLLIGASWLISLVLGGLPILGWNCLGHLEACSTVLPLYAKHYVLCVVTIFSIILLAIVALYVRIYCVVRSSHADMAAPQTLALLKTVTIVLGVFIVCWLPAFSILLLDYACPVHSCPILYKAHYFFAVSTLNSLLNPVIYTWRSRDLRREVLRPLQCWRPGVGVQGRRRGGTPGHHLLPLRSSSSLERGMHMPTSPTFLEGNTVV
Chain of Sphingosine 1-phosphate receptor 3 (Q99500 whole entry): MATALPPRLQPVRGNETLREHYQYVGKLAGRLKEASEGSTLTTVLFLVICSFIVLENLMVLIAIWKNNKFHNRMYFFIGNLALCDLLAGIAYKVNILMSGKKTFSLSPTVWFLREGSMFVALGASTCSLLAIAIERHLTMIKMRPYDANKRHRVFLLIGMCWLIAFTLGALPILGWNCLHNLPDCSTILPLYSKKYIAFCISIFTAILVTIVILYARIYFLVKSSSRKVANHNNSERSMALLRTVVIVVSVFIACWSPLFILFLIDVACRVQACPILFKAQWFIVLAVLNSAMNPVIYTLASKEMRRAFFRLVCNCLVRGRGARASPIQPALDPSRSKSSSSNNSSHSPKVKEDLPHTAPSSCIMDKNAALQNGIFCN

SMILES: FCc1ccc(OCCOc2ccc(Cl)cc2Cl)c(Cl)n1
EC50 [8]: > 50 µM (inactive)
EC50 [9]: > 50 µM (inactive)
EC50 [10]: > 50 µM (inactive)
EC50 [11]: > 50 µM (inactive)

SMILES: N#C/C(=C/c1ccc(OCc2cccc(C(=O)O)c2)c(Cl)c1)c1cccc(F)c1
IC50 [12]: > 100 µM (inactive)
IC50 [13]: > 100 µM (inactive)
IC50 [14]: > 100 µM (inactive)
IC50 [15]: 99.1 µM (active)
IC50 [16]: > 100 µM (inactive)
IC50 [17]: > 100 µM (inactive)
IC50 [18]: 4.78 µM (active)
IC50 [19]: 17 µM (active)

SMILES: CN[C@@H](C)C(=O)NC1CCCN([C@@H](C)C(=O)Nc2ccc3ccccc3c2)C1=O (some centres not stated)
IC50 [20]: > 100 µM (inactive)
IC50 [21]: > 100 µM (inactive)

Other lines, results leading:

IC50 [1]: 3.86 µM (active)
IC50 [2]: 9.68 µM (active)
SMILES: Cc1ccc(N2CCN(CCCNC(=O)Cn3c(=O)c4cccn4c4cc(Br)cnc43)CC2)cc1

EC50 [3]: 5.69 µM
IC50 [4]: > 32 µM (inactive)
EC50 (Mu-type opioid receptor): > 32 µM (inactive)
EC50 [5]: > 32 µM (inactive)
EC50 [6]: 1.68 µM (active)
EC50 [7]: 4.15 µM
SMILES: Cc1cccc(-n2ccnc2CN2CCC(CO)(Cc3ccccc3)CC2)c1
